Experimental data: patent US20250170098A1, “MOLECULAR JACKHAMMER FOR MECHANICAL DESTRUCTION OF CELLULAR STRUCTURE” (William Marsh Rice University, priority 2022, published 2025)

How the values were obtained:
A375 cells [1] = assay: Clonogenic assay; format: cell-based, human
Method: The clonogenic assay was conducted to confirm that cancer cells treated by plasmon-driven MJH are indeed death upon NIR-light activation (FIG. 18). Three molecules were analyzed: the most VDA active BL-204, medium active BL-141-2 and low active Cy7-amine. […] This was accomplished by incubating the MJH molecules with the A375 cells for 50 min and immediately activate the plasmon-driven MJH using 730 nm NIR-light at 80 mW/cm^2 for 10 min. This is considered a short contact time between the MJH and the A375 cells.
Clonogenic assay. A375 cells were seeded in 35 mm cell culture dishes at predetermined densities to allow for an approximately equal number of resultant colonies. The next day, cells were treated with Cy7.5-amine at variable concentration and with or without 730 nm light at 80 mWcm^−2 for 10 min. The cells were incubated with Cy7.5-amine for 50 min before the illumination, the media was replaced with fresh media after the illumination and cells were cultured for 6 days to allow for colony formation. Cells were then washed once with PBS and fixed-stained in a 0.5% (w/v) crystal violet in methanol/water solution (1:1) during 10 min. The excess of crystal violet was washed off with water, the plates were dried at room temperature and then the colonies were counted using ImageJ software version 1.52a, and the survival fraction was determined. All treatments were in triplicate.

A375 cells [2] = assay: Crystal violet cell viability assay; format: cell-based, human; conditions: 2 μM; 10 min 730 nm light at 80 mW/cm^2
Method: Crystal violet cell viability assay. The crystal violet assay was used to measures the cell viability. The principle of this method is that the viable cells adhere to the surface of the cell culture dish and keep growing and remain attached through the standard cell culture conditions during a period of 1-2 days and through the staining conditions in the assay. […] For specific details, A375 cells were harvested and counted, and then 20,000 A375 cells per well were added in 24 cell culture well plate (Corning) and cultured for 1 day at standard incubation conditions of 37° C. and 5% CO2. The cells were treated in four experimental groups (4 samples per group): group 1) 0.1% DMSO, group 2) 0.1% DMSO+NIR light treatment, group 3) 2 μM Cy7.5-amine, and group 4) 2 μM Cy7.5-amine+NIR light. The treatments with 0.1% DMSO or 2 μM Cy7.5-amine were done by adding those respective concentrations to the cells in the media and then incubated for 60 min. Immediately after the incubation, the cells in the groups with “+NIR light”, were treated with 730 nm light at 80 mW/cm^2 for 10 min. After the treatment with NIR light, the media in all the groups was removed and fresh media was added. […] Then the crystal violet was quantified by its absorbance at 570 nm. The cell viability was calculated from the absorbance relative to the absorbance in the cells without any treatment. […]

B16-F10 melanoma tumors = assay: Treatment of B16-F10 melanoma tumors in C57BL/6 mice; format: in vivo, mouse
Method: Injection of B16-F10 cells subcutaneously in C57BL/6J mice to generate the melanoma tumors. The B16-F10 cells were cultured as described before. Cells were harvested from sub-confluent plates, ˜90%, and fresh media was added to the cells the day before harvesting. The cells were harvested using 0.05% trypsin-EDTA (Gibco, 25-300-054). The harvested cells were re-dispersed in DMEM media without supplements at 1×10^6 cells mL^−1. The cell suspension was kept in ice. Then 100 μL of cells were injected per mouse (this was 100,000 cells per mouse) subcutaneously in the right flank of a 7-8-week-old female mouse (C57BL/6J), in which the hair in the right flank was previously depilated using a shaver. […] Starting at day 12 the tumors were measured using a caliper. […] The volume of the tumor was calculated as: (½)×length×width×height. When the height was not possible to measure in the case of the tumors which were too small (usually <100 mm^3), then the tumor volume was calculated as: (½)×length×width^2. […]
Treatment of B16-F10 tumors with Cy7.5-amine and NIR 730 nm light. […] The light intensity was measured using an Optical Power Meter from Thorlabs, sensor model S302C and console model PM100D. While under light treatment the temperature at the tumor area was measured using an IR thermal camera (Model: Compact Seek Thermal for Android. Seek Thermal, Inc. Santa Barbara, CA). […]

For CN1/C(=C\C=C2C=C(/C=C/C3=[N+](CCCCCC(=O)NCCCCCCN)c4ccc5ccccc5c4C3(C)C)CCC\2)C(C)(C)c2c1ccc1ccccc21 [Cy7.5-amine], which “cells eradicated, clonogenic assay” value (A375 cells [1]; 0.5 μM, 10 min 730 nm light at 80 mWcm^−2) is on record?
The value was 100%.

And the “eradication of A375 cells, clonogenic assay (in words)” value (A375 cells [1]; 1 μM + light (80 mWcm^−2 of 730 nm for 10 min))?
The value was “complete eradication”.

And the “dead cells by crystal violet assay” value (A375 cells [2])?
Its value is 99.9%.

And the “size of the B16-F10 tumors” value (B16-F10 melanoma tumors; 8 μg in 50 μL PBS intratumorally, 730 nm LED at for 5 min)?
The value was “significantly reduced”.

And the “temperature increase of B16-F10 tumors under light treatment” value (B16-F10 melanoma tumors; Cy7.5-amine with light, for 5 min)?
The value was roughly 5 °C.
